# From patent US20150299188A1, “HETEROCYCLIC COMPOUND” (priority 2012, published 2015)
# Tested on: FLAP (5-lipoxygenase activating protein)
# Assay: In vitro binding test: displacement of [3H]-7-chloro-3-(5-((3-fluoropyridin-2-yl)methoxy)-2-methylphenyl)-3,4-dihydroquinazolin-2(1H)-one from Sf9 microsome fractions
# Design: species or system human and mouse
# Conditions: Sf9 microsome fractions expressing FLAP; 100% = radioligand binding with 10 μM sodium 3-(3-(tert-butylsulfanyl)-1-(4-chlorobenzyl)-5-isopropyl-1H-indol-2-yl)-2,2-dimethylpropanoate, 0% = DMSO; test compound concentration not given
# Summary of the method: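 Sf9 microsomes expressing human or mouse FLAP (2 μg/mL) preincubated with compound 10 min at room temperature, then 120 nM tritiated quinazolinone ligand added for 60 min; buffer 100 mM Tris-HCl pH 7.5 with NaCl, EDTA, DTT, glycerol, Tween20. Bound ligand filtered and counted by scintillation; 10 μM indole propanoate defines 100% inhibition, DMSO 0%.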
row,inhibitory rate (%),SMILES
1,98,"Cc1cc2c(cc1N1Cc3ccc(CO)cc3NC1=O)OC(c1ncccc1F)CC2 (stereo not shown) [Example 185, 3-(2-(3-fluoropyridin-2-yl)-6-methyl-3,4-dihydro-2H-chromen-7-yl)-7-(hydroxymethyl)-3,4-dihydroquinazolin-2(1H)-one]"
2,106,"COc1cc2c(c(C3CC3)n1)CN(c1cc3c(cc1C)CCC(c1ncccc1F)O3)C(=O)N2 (stereo not shown) [Example 122, 5-cyclopropyl-3-(2-(3-fluoropyridin-2-yl)-6-methyl-3,4-dihydro-2H-chromen-7-yl)-7-methoxy-3,4-dihydropyrido[4,3-d]pyrimidin-2(1H)-one]"
3,88,"O=C1Nc2cc(OC(F)F)nc(C3CC3)c2CN1c1cc2c(cc1Cl)CCC(c1ncccc1F)O2 (stereo not shown) [Example 18, 3-(6-chloro-2-(3-fluoropyridin-2-yl)-3,4-dihydro-2H-chromen-7-yl)-5-cyclopropyl-7-(difluoromethoxy)-3,4-dihydropyrido[4,3-d]pyrimidin-2(1H)-one]"
4,106,"Cc1cc2c(cc1N1Cc3c(C(F)(F)F)ncc(/C=C/C(=O)O)c3NC1=O)OC(c1ncccc1F)CC2 (stereo not shown) [Example 92, (2E)-3-(3-(2-(3-fluoropyridin-2-yl)-6-methyl-3,4-dihydro-2H-chromen-7-yl)-2-oxo-5-(trifluoromethyl)-1,2,3,4-tetrahydropyrido[4,3-d]pyrimidine-8-yl)acrylic acid]"
5,106,"O=C1Nc2cc(-c3ccn[nH]3)nc(C3CC3)c2CN1c1cc2c(cc1Cl)CCC(c1ncccc1F)O2 (stereo not shown) [Example 115, 3-(6-chloro-2-(3-fluoropyridin-2-yl)-3,4-dihydro-2H-chromen-7-yl)-5-cyclopropyl-7-(1H-pyrazol-5-yl)-3,4-dihydropyrido[4,3-d]pyrimidin-2(1H)-one]"
6,96,"O=C(NCCO)c1cc2c(c(C3CC3)n1)CN(c1cc3c(cc1Cl)CCC(c1ncccc1F)O3)C(=O)N2 (stereo not shown) [Example 101, 3-(6-chloro-2-(3-fluoropyridin-2-yl)-3,4-dihydro-2H-chromen-7-yl)-5-cyclopropyl-N-(2-hydroxyethyl)-2-oxo-1,2,3,4-tetrahydropyrido[4,3-d]pyrimidine-7-carboxamide]"
7,92,"Cc1cc2c(cc1N1Cc3c(cc(N4CCCC4=O)nc3C3CC3)NC1=O)OC(c1ncccc1F)CC2 (stereo not shown) [Example 144, 5-cyclopropyl-3-(2-(3-fluoropyridin-2-yl)-6-methyl-3,4-dihydro-2H-chromen-7-yl)-7-(2-oxopyrrolidin-1-yl)-3,4-dihydropyrido[4,3-d]pyrimidin-2(1H)-one]"
8,92,"Cn1cc(-c2ncc(F)c3c2NC(=O)N(c2cc4c(cc2Cl)CCC(c2ncccc2F)O4)C3)cn1 (stereo not shown) [Example 169, 3-(6-chloro-2-(3-fluoropyridin-2-yl)-3,4-dihydro-2H-chromen-7-yl)-5-fluoro-8-(1-methyl-1H-pyrazol-4-yl)-3,4-dihydropyrido[3,4-d]pyrimidin-2(1H)-one]"
9,110,"CCOC(=O)c1nccc2c1CN(c1cc3c(cc1Cl)CCC(c1ncccc1F)O3)C(=O)N2 (stereo not shown) [Example 56, ethyl 3-(6-chloro-2-(3-fluoropyridin-2-yl)-3,4-dihydro-2H-chromen-7-yl)-2-oxo-1,2,3,4-tetrahydropyrido[4,3-d]pyrimidine-5-carboxylate]"
10,106,"O=C1Nc2cc(-c3n[nH]c(=O)o3)nc(C3CC3)c2CN1c1cc2c(cc1Cl)CCC(c1ncccc1F)O2 (stereo not shown) [Example 117, 3-(6-chloro-2-(3-fluoropyridin-2-yl)-3,4-dihydro-2H-chromen-7-yl)-5-cyclopropyl-7-(5-oxo-4,5-dihydro-1,3,4-oxadiazol-2-yl)-3,4-dihydropyrido[4,3-d]pyrimidin-2(1H)-one]"
11,104,"Cc1ccc(OCc2ncccc2F)cc1N1Cc2ccc(C(=O)N(C)C3CC3)cc2NC1=O [Example 302, N-cyclopropyl-3-(5-((3-fluoropyridin-2-yl)methoxy)-2-methylphenyl)-N-methyl-2-oxo-1,2,3,4-tetrahydroquinazoline-7-carboxamide]"

# Second part, the compound before the results:
row,SMILES,inhibitory rate (%)
1,"Cc1ccc(OCc2c(F)cccc2F)cc1N1Cc2ccc(C3=NC(C)(C)C(=O)O3)cc2NC1=O [Example 210, 3-(5-((2,6-difluorobenzyl)oxy)-2-methylphenyl)-7-(4,4-dimethyl-5-oxo-4,5-dihydro-1,3-oxazol-2-yl)-3,4-dihydroquinazolin-2(1H)-one]",96
2,"Cc1ccc(OCc2ncccc2F)cc1N1Cc2c(Cl)cccc2N(C)C1=O [Example 291, 5-chloro-3-(5-((3-fluoropyridin-2-yl)methoxy)-2-methylphenyl)-1-methyl-3,4-dihydroquinazolin-2(1H)-one]",94
3,"O=c1[nH]c2cccc(Cl)c2c(=O)n1-c1cc(OCc2ncccc2F)c(F)cc1Cl [Example 364, 5-chloro-3-(2-chloro-4-fluoro-5-((3-fluoropyridin-2-yl)methoxy)phenyl)quinazoline-2,4(1H,3H)-dione]",108
4,"CCc1ccc(OCc2c(F)cccc2F)cc1N1Cc2ccc(CO)cc2NC1=O [Example 179, 3-(5-((2,6-difluorobenzyl)oxy)-2-ethylphenyl)-7-(hydroxymethyl)-3,4-dihydroquinazolin-2(1H)-one]",91
5,"CCc1ccc(OCc2c(F)cccc2F)cc1N1Cc2ccc(C(C)(C)O)cc2NC1=O [Example 178, 3-(5-((2,6-difluorobenzyl)oxy)-2-ethylphenyl)-7-(2-hydroxypropan-2-yl)-3,4-dihydroquinazolin-2(1H)-one]",109
6,"CCCCOC(=O)/C=C/c1ccc(OCc2ncccc2F)cc1N1Cc2ccccc2NC1=O [Example 225, butyl (2E)-3-(4-((3-fluoropyridin-2-yl)methoxy)-2-(2-oxo-1,4-dihydroquinazolin-3(2H)-yl)phenyl)acrylate]",100
7,"O=C(CCc1ccc(OCc2ncccc2F)cc1N1Cc2ccccc2NC1=O)NC1CC1 [Example 280, N-cyclopropyl-3-(4-((3-fluoropyridin-2-yl)methoxy)-2-(2-oxo-1,4-dihydroquinazolin-3(2H)-yl)phenyl)propanamide]",62
8,"Cc1ccc(OCc2c(F)cccc2F)cc1N1Cc2ncccc2NC1=O [Example 223, 3-(5-((2,6-difluorobenzyl)oxy)-2-methylphenyl)-3,4-dihydropyrido[3,2-d]pyrimidin-2(1H)-one]",95
9,"CCCCOC(=O)CCc1ccc(OCc2ncccc2F)cc1N1Cc2ccccc2NC1=O [Example 228, butyl 3-(4-((3-fluoropyridin-2-yl)methoxy)-2-(2-oxo-1,4-dihydroquinazolin-3(2H)-yl)phenyl)propanoate]",95
10,"O=C1Nc2cc(CO)ccc2CN1c1cc(OCc2c(F)cccc2F)ccc1Cl [Example 218, 3-(2-chloro-5-((2,6-difluorobenzyl)oxy)phenyl)-7-(hydroxymethyl)-3,4-dihydroquinazolin-2(1H)-one]",95
11,"Cc1ccc(OCc2ncccc2F)cc1N1Cc2nn(CC(F)(F)F)cc2NC1=O [Example 263, 6-(5-((3-fluoropyridin-2-yl)methoxy)-2-methylphenyl)-2-(2,2,2-trifluoroethyl)-2,4,6,7-tetrahydro-5H-pyrazolo[4,3-d]pyrimidin-5-one]",97
12,"Cc1ccc(OCc2c(F)cccc2F)cc1N1Cc2ccc(C(=O)NS(C)(=O)=O)cc2NC1=O [Example 209, 3-(5-((2,6-difluorobenzyl)oxy)-2-methylphenyl)-N-(methylsulfonyl)-2-oxo-1,2,3,4-tetrahydroquinazoline-7-carboxamide]",102
13,"COC(=O)c1ccc2c(c1)NC(=O)N(c1cc(OCc3cc(F)ccc3F)ccc1C)C2 [Example 199, methyl 3-(5-((2,5-difluorobenzyl)oxy)-2-methylphenyl)-2-oxo-1,2,3,4-tetrahydroquinazoline-7-carboxylate]",60
14,"Cn1c(=O)n(-c2ccc3c(c2)OC(c2c(F)cccc2F)CC3)c(=O)c2ccccc21 (stereo not shown) [Example 329, 3-(2-(2,6-difluorophenyl)-3,4-dihydro-2H-chromen-7-yl)-1-methylquinazoline-2,4(1H,3H)-dione]",103
15,"CC(C)(C)Cc1ccc(OCc2c(F)cccc2F)cc1N1Cc2ccc(C(C)(C)O)cc2NC1=O [Example 293, 3-(5-((2,6-difluorobenzyl)oxy)-2-(2,2-dimethylpropyl)phenyl)-7-(2-hydroxypropan-2-yl)-3,4-dihydroquinazolin-2(1H)-one]",84
16,"CC(C)(O)c1ccc2c(c1)NC(=O)N(c1cc(OCc3c(F)cccc3F)ccc1Cl)C2 [Example 222, 3-(2-chloro-5-((2,6-difluorobenzyl)oxy)phenyl)-7-(2-hydroxypropan-2-yl)-3,4-dihydroquinazolin-2(1H)-one]",103
17,"Cn1c(=O)n(-c2cccc(OCc3c(F)cccc3F)c2)c(=O)c2ccncc21 [Example 331, 3-(3-((2,6-difluorobenzyl)oxy)phenyl)-1-methylpyrido[3,4-d]pyrimidine-2,4(1H,3H)-dione]",51
18,"Cc1ccc(OCc2ncccc2F)cc1N1Cc2c(Cl)cccc2N(CC2CC2)C1=O [Example 284, 5-chloro-1-(cyclopropylmethyl)-3-(5-((3-fluoropyridin-2-yl)methoxy)-2-methylphenyl)-3,4-dihydroquinazolin-2(1H)-one]",105
19,"Cc1ccc(OCc2ncccc2F)cc1N1Cc2cc(Cl)ccc2NC1=O [Example 243, 6-chloro-3-(5-((3-fluoropyridin-2-yl)methoxy)-2-methylphenyl)-3,4-dihydroquinazolin-2(1H)-one]",100
20,"CC(C)(O)c1ccc2c(c1)NC(=O)N(c1cc(OCc3c(F)cccc3F)ccc1CC1CCCCC1)C2 [Example 289, 3-(2-(cyclohexylmethyl)-5-((2,6-difluorobenzyl)oxy)phenyl)-7-(2-hydroxypropan-2-yl)-3,4-dihydroquinazolin-2(1H)-one]",80
